PubChem BioAssay AID328 (DTP/NCI, 2004)
Toxic doses and inconclusive results are not listed. Rule for the calls: active = survival T/C of 150% or more; inactive = T/C below 125% in these data.

Tested on: BDF1 mice, P388 leukemia ip, median survival T/C
Experiment: NCI In Vivo Anticancer Drug Screen. Data for tumor model P388 Leukemia (intraperitoneal) in B6D2F1 (BDF1) mice
Conditions: endpoint: median survival time, higher = longer survival
Summary of the method: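 Each value expresses how treatment altered survival: treated-mouse outcome over vehicle-mouse outcome, both groups bearing the transplanted tumour.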

[1] = dose: 50.0 mg/kg/injection, schedule: Q04DX003 (ip), vehicle: other
[2] = dose: 100.0 mg/kg/injection, schedule: Q04DX003 (ip), vehicle: other
[3] = dose: 200.0 mg/kg/injection, schedule: Q04DX003 (ip), vehicle: other

Measured: T/C

O=C1CSC(=S)N1c1ccco1
inactive: dose: 50.0 mg/kg/injection, schedule: Q01DX001 (ip), vehicle: Klucel (hydroxypropylcellulose) (HPC) 100 % of control | dose: 100.0 mg/kg/injection, schedule: Q01DX001 (ip), vehicle: Klucel (hydroxypropylcellulose) (HPC) 95 % of control | dose: 100.0 mg/kg/injection, schedule: Q04DX003 (ip), vehicle: saline 104 % of control | dose: 200.0 mg/kg/injection, schedule: Q01DX001 (ip), vehicle: Klucel (hydroxypropylcellulose) (HPC) 95 % of control | dose: 200.0 mg/kg/injection, schedule: Q04DX003 (ip), vehicle: saline 100 % of control | dose: 400.0 mg/kg/injection, schedule: Q04DX003 (ip), vehicle: saline 100 % of control

CCC(C)NCCNCCNC(C)CC (stereo unspecified)
inactive: dose: 6.25 mg/kg/injection, schedule: Q04DX003 (ip), vehicle: saline 95 % of control | dose: 12.5 mg/kg/injection, schedule: Q04DX003 (ip), vehicle: saline 95 % of control | dose: 25.0 mg/kg/injection, schedule: Q04DX003 (ip), vehicle: saline 104 % of control

CN1CCOP1OCC(F)(F)F (stereo unspecified)
inactive: dose: 25.0 mg/kg/injection, schedule: Q01DX005 (ip), vehicle: saline 104 % of control | dose: 50.0 mg/kg/injection, schedule: Q01DX005 (ip), vehicle: saline 93 % of control | dose: 100.0 mg/kg/injection, schedule: Q01DX005 (ip), vehicle: saline 109 % of control

O=C(NCCCl)Nc1cccc2cc3ccccc3cc12
inactive: dose: 100.0 mg/kg/injection, schedule: Q04DX003 (ip), vehicle: Klucel (hydroxypropylcellulose) (HPC) 100 % of control | dose: 200.0 mg/kg/injection, schedule: Q04DX003 (ip), vehicle: Klucel (hydroxypropylcellulose) (HPC) 95 % of control | dose: 400.0 mg/kg/injection, schedule: Q04DX003 (ip), vehicle: Klucel (hydroxypropylcellulose) (HPC) 90 % of control

CC(=O)Nc1cc(C)ccc1O
inactive: dose: 100.0 mg/kg/injection, schedule: Q04DX003 (ip), vehicle: saline with Tween-80 100 % of control | dose: 200.0 mg/kg/injection, schedule: Q04DX003 (ip), vehicle: saline with Tween-80 104 % of control | dose: 400.0 mg/kg/injection, schedule: Q04DX003 (ip), vehicle: saline with Tween-80 90 % of control

O=C1/C(=C/c2ccc(Cl)cc2)SC(=S)N1CCCN1CCOCC1
inactive: dose: 50.0 mg/kg/injection, schedule: Q01DX009 (ip), vehicle: saline with Tween-80 91 % of control | dose: 100.0 mg/kg/injection, schedule: Q01DX009 (ip), vehicle: saline with Tween-80 88 % of control | dose: 200.0 mg/kg/injection, schedule: Q01DX009 (ip), vehicle: saline with Tween-80 91 % of control

C[N+](C)(C)CCOC(=O)/C=C/c1cnc[nH]1
inactive: dose: 5.0 mg/kg/injection, schedule: Q01DX009 (ip), vehicle: saline 97 % of control | dose: 10.0 mg/kg/injection, schedule: Q01DX009 (ip), vehicle: saline 95 % of control | dose: 20.0 mg/kg/injection, schedule: Q01DX009 (ip), vehicle: saline 117 % of control

O=C(/C=C/c1cccc(Br)c1)c1ccc(Cl)cc1
inactive: dose: 50.0 mg/kg/injection, schedule: Q01DX009 (ip), vehicle: other 120 % of control | [1] 100 % of control | dose: 100.0 mg/kg/injection, schedule: Q01DX009 (ip), vehicle: other 120 % of control | [2] 100 % of control | dose: 132.0 mg/kg/injection, schedule: Q01DX009 (ip), vehicle: other 100 % of control | dose: 200.0 mg/kg/injection, schedule: Q01DX009 (ip), vehicle: other 104 % of control | [3] 90 % of control | dose: 300.0 mg/kg/injection, schedule: Q01DX009 (ip), vehicle: other 104 % of control

COc1ccc(C(C#N)CC(=O)c2ccc(OCc3ccccc3)c(OC)c2)cc1OC (stereo unspecified)
inactive: [1] 96 % of control | [2] 88 % of control | [3] 87 % of control | dose: 400.0 mg/kg/injection, schedule: Q04DX003 (ip), vehicle: other 90 % of control
